Data from patent publication US20030180735A1, “Screening method” (priority 1999, published 2003).
Entries after “also recorded” stand apart in the source; their conditions may differ.

Tests used:
Format in all cases: cell-based
[1] = system: HeLa cells; conditions: agent plus cisplatin 10 μg/ml, overnight, crystal violet
Protocol: (§1) In our system, cells are cultured in 96 well plates in 100 μl of culture medium and are treated in ways known to induce apoptosis. Following an indicated period of time, 10 μl MTT stock solution (5 mg/mi) is added to each culture being assayed and incubated at 37° C. for 4 h. At the end of the incubation period the converted dye is solubilised with acidic-isopropanol (0.04N HCL. Absorbance of converted dye is measured at a wavelength of 570 nm.
The following example describes a method to analyse viability of adherent cells, such as HeLa, using chemical stain Crystal Violet. Adherent cells are cultured in the presence of known agents to induce/ modulate the apoptotic process. After a suitable period of time, supernatants are removed by inverting and flicking the plate. Wells are washed twice with PBS and remaining adherent cells are fixed with 100% EtOH and air-dried. To each well is added 100 μl of 1% aqueous Crystal Violet Solution (Sigma). Plates are then incubated at room temperature (RT) for 5 min before washing in tap water. Wells are solubilised in 33% acetic acid and optical density is measured at 570 nm using a plate reader.
HeLa cells are plated in full culture medium at a concentration of 2×10^4 cells/well of 96 well plate. […] Cells are cultured overnight at 37° C. before analysing for apoptosis using either MTT or crystal violet.
HeLa cells are plated in full culture medium at a concentration of 2×10^4 cells/well of 96 well plate. […] Cells are cultured overnight at 37° C. before analysing for apoptosis using crystal violet.
HeLa cells are plated into 96 well plate at a concentration of 2×10^4/well and allowed to adhere for 4 hours Culture medium is then replaced with fresh medium containing the indicated concentrations of TNFα together with 5 μg/ml cycloheximide. Cultures are maintained for a further 18 hours, before measuring apoptosis with crystal violet and reading @570 nm in a plate reader.
Cells are cultured for a further 18 h before staining the remaining adherent cells with crystal violet and measuring absorbance at 570 nm.

[2] = system: primary human neutrophils; assay: Neutrophil survival/viability by MTT assay
Protocol: primary human neutrophils are isolated and purified from peripheral blood of normal healthy individuals. Neutrophils are resuspended in serum containing culture medium together with various amounts of GM-CSF at a density of 2×10^6/ml, with 100 μl plated into a 96 well plate and cultured for 18 h at 37° C. After this time 10 μl of MTT (5 mg/ml) is added to the cultures and incubated for a further 4 h at 37° C. before solubilisation of the purple coloured formazan with acidic isopropanol. Optical densities are read at 570 nm using a plate reader.
A time course of GM-CSF additions was carried out to neutrophils in order to determine up to what stage GM-CSF can induce survival in neutrophils. primary human neutrophils are isolated and purified from peripheral blood of normal healthy individuals. Neutrophils are resuspended in serum containing culture medium at a concentration of 2×10^6/ml, with 100 μl/well plated into a 96 well plate and culture at 37° C. commenced. At the indicated time points GM-CSF (50U/ml) was added to the neutrophils and culture continued until 20 h post initiation of culture. After this time, 10 μl of MTT (5 mg/ml) was added to the cultures and incubated for a further 4 h at 37° C. before solubilisation of the purple coloured formazan with acidic isopropanol. Optical densities were read at 570 nm using a plate reader. […] However, if administration of the cytokine is delayed for 20 h post isolation, the protective effect is zero in 24 h cultures.
We performed timed additions of anti-GM-CSF antibody to neutrophils in order to determine how immediate the anti-apoptotic effects induced by GM-CSF occur. primary human neutrophils are isolated and purified from peripheral blood of normal healthy individuals. […] Optical densities are read at 570 nm using a plate reader. […]
as §1, with “Following an indicated period of time, 10 μl MTT stock solution (5 mg/mi) is added to each culture being assayed and incubated at 37° C. for 4 h.” left out

[3] = system: primary human neutrophils; assay: Neutrophil gene expression, Incyte LifeGrid microarray
Protocol: Primary human neutrophils are isolated and purified from peripheral blood of normal healthy individuals. Neutrophils are resuspended in serum containing culture medium together with GM-CSF (50U) at a concentration of 2×10^6/ml, and cultured for 0 h (control), 2 h, 4 h and 6 h at 37° C. After these times, total cellular RNA is extracted and this used as the starting material for analysis of gene expression changes.
Primary human neutrophils are isolated and purified from peripheral blood of normal healthy individuals. Neutrophils are resuspended in serum containing culture medium together with GM-CSF (50U) at a concentration of 2×10^6/ml, and cultured for 0 h (control), 2 h, 4 h and 6 h at 37° C. After these times, total cellular RNA is extracted and this used as the starting material for analysis of gene expression changes using the Incyte “LifeGrid” microarray. Following cluster analysis, a cluster of genes are identified that contained several genes involved in neutrophil survival and whose transcription is up—regulated upon GM-CSF treatment. This cluster, which included BcI2-A1 (a ‘known’ antiapoptotic neutrophil BCL2 family member) is termed the ‘survival’ cluster (See FIG. 14). Among these genes, one group that could be clearly identified are those genes whose protein products are involved in protecting the cell against an increased oxidative environment (FIG. 14). […] Since all these gene products are attenuators of the oxidative cellular response it is indicative that GM-CSF protects the cell by reducing the harmful effects of reactive oxygen species. The corollary therefore is that spontaneous apoptosis must be due to an uncontrolled oxidative environment within the cell. Furthermore, this reaffirms that the neutrophils response to reactive oxidative species is […] of the glutathione system.
Methodology is as described by manufacturer, for Human LifeGrid™ arrays. Essentially, total cellular RNA (1 μg to 20 μg) or polyA+ mRNA (100 ng to 5 μg) is incubated with an oligo (dT) primer. Primed RNA is reverse transcribed to first stand cDNA in a reaction containing M-MLV reverse transcriptase (RT; alternatively Superscript II is used (Life Sciences)), RT buffer, dNTPs and [α-^33P] dCTP (2000-4000 Ci/mmol) at 42° C. for 1 to 5 h.
Methodology is as described by manufacturer, for Human LifeGrid™ arrays.

[4] = GM-CSF (50U), vs control levels

Molecule	HeLa cell sensitivity to cisplatin [1]	effect on GM-CSF mediated survival ([2]; BSO 1 or 4 mM, GM-CSF 5 u/ml, 18 h)	relation of survival to GM-CSF concentration (MTT) ([2]; 18 h culture)	protective effect when GM-CSF addition is delayed 20 h post isolation ([2]; GM-CSF 50U/ml, 24 h cultures)	expression of catalase [3, 4]	expression of ferritin [3, 4]	expression of mitochondrial superoxide dismutase [3, 4]	transcription of fructose 1,6 bisphosphatase ([3]; GM-CSF, 6 hour period)	transcription of phosphofructokinase 1 ([3]; GM-CSF, 6 hour period)
CC(=O)N[C@@H](CS)C(=O)O [NAC]	decreased; also recorded: desensitised towards cisplatin	–	–	–	–	–	–	–	–
CCCCS(=N)(=O)CCC(N)C(=O)O (stereo not shown) [BSO, buthionine sulphoximine]	increase the sensitivity; also recorded: dramatically sensitises HeLa cell towards cisplatin	did not impact on GM-CSF to mediate survival	–	–	–	–	–	–	–
GM-CSF: well-characterised neutrophil growth/survival factor (cytokine)	–	–	direct correlation between survival and concentrations of GM-CSF	zero and not sufficient to mediate survival	increased expression	increased expression	increased expression	upregulates	down regulated
